{"source": "patent US11458175B2", "about": "“Composition comprising Lactobacillus plantarum CJLP475 strain and Lactobacillus plantarum CJLP243 strain and use thereof” (CJ CHEILJEDANG CORPORATION, priority 2018, dated 2022)", "key": {"[1]": {"assay": "Bile-resistance assessment in artificial bile medium (viable cell count)", "assay_type": "physicochemical", "conditions": "artificial bile medium (MRS with 0.5% oxgall), 37° C.", "description": "An artificial bile medium was prepared for the assessment of bile-resistance. More specifically, the artificial bile medium was prepared by adding 0.5% oxgall (bull bile) to a liquid MRS medium, followed by sterilization.\n(§1) The strains of Example 1 were subjected to a static culture in a liquid MRS medium at 37° C. for 18 hours after the second subculture. 1% of the pre-incubated strains were inoculated to the artificial bile medium and subjected to a static culture at 37° C., and the culture broth was sampled at 0 hour and 24 hours. The sampled culture broth was serial diluted and smeared on the solid MRS medium, and incubated at 37° C. for 48 hours to measure viable cell count.\n(§2) In order to compare the acid-resistance and bile-resistance of the Lactobacillus plantarum CJLP475 strain and the Lactobacillus plantarum CJLP243 strain with those of the conventionally known strains, the acid-resistance and the bile-resistance of the Lactobacillus plantarum standard strain (KCCM12116) obtained from the Korean Culture Center of Microorganisms were assessed in the same manner as the above method."}, "PED virus SM98": {"test_system": "PED virus SM98", "assay": "Inhibition of PED virus infection by immune cells of weaned piglets fed with the strains", "assay_type": "in vivo", "design": "key: ++: Complete Inhibition; +: Partial Inhibition; −: Infected", "conditions": "piglets fed 10^10 CFU per day for 3 weeks; for Inhibitory Effect against PED virus infection, mLN, SM98: immune cells of mesenteric lymph nodes; for Inhibitory Effect against PED virus infection, Spin, SM98: immune cells of spleen", "description": "(§3) In order to confirm the effect of the composition including the Lactobacillus plantarum CJLP243 strain and the Lactobacillus plantarum CJLP475 strain on the immunity upon feeding, an experiment was carried out as follows:\n(§4) Thirty-two 21-day-old weaned piglets were purchased and raised in a container farm for 3 weeks. The feed was given in the form of common crumble feeds without antibiotics. The composition including the Lactobacillus plantarum CJLP475 strain and the Lactobacillus plantarum CJLP243 strain was produced in the form of freeze-dried powder and stored in a refrigerator, and each piglet was given the feed in an amount of 10^10 CFU per day. After 3 weeks of oral administration, four piglets per treatment group were autopsied to collect blood and tissue samples so as to determine the effect of the composition on the immunity of the piglets.\n(§5) In order to obtain immune cells from the spleen (Spin) and the mesenteric lymph nodes (mLN), the chopped tissue was powdered using a plunger of a syringe and a 70-micrometer cell strainer (BD Falcon), and then the cells were washed using an RPMI-1640 medium (Roswell Park Memorial Institute-1640, Gibco BRL, Grand Island, N.Y., USA). The remaining RBCs (red blood cells) were removed using an RBC lysis buffer (eBioscience, USA) prior to the last washing step. The immune cells collected after the last washing step were stained with Trypan blue and counted with a hemocytometer to be used.\n(§6) For evaluation of the inhibitory effect against viral infection, PED virus was incubated in the same manner as in Example 6 described above, and the content thereof was measured. The immune cells obtained from the weaned piglets without feeding of the composition were used as a negative control."}, "PED virus KPEDV9": {"test_system": "PED virus KPEDV9", "assay": "Inhibition of PED virus infection by immune cells of weaned piglets fed with the strains", "assay_type": "in vivo", "design": "key: ++: Complete Inhibition; +: Partial Inhibition; −: Infected", "conditions": "piglets fed 10^10 CFU per day for 3 weeks; for Inhibitory Effect against PED virus infection, mLN, KPEDV9: immune cells of mesenteric lymph nodes; for Inhibitory Effect against PED virus infection, Spin, KPEDV9: immune cells of spleen", "description": "as §3, §4, §5, §6"}, "[2]": {"test_system": "porcine epidemic diarrhea virus (PEDV, SM98 or KPEDV9 strain)", "assay": "Inhibitory effect against viral infection, PBMC culture broth on IPEC-J2 cells", "assay_type": "cell-based", "conditions": "PBMC culture broth on IPEC-J2, PED virus 100 TCID50/mL, 48 hours", "description": "In order to measure the inhibitory effect of the composition including the Lactobacillus plantarum CJLP475 strain and the Lactobacillus plantarum CJLP243 strain against viral infection, porcine epidemic diarrhea virus (PEDV, SM98 or KPEDV9 strain) was prepared. Specifically, the virus was proliferated in Vero cells (CCL-81, kidney epithelial cells extracted from Chlorocebus), and MEM (Eagle's Minimum Essential Medium, Gibco BRL, USA), heat-inactivated 10% FBS (fetal bovine serum, v/v) and 1% (v/v) penicillin/streptomycin were as the media for culturing Vero cells. The Vero cells were incubated as a monolayer, washed twice with the media, and then all the solutions were removed. The virus was mixed at 0.1 MOI (multiplicity of infection) level in FBS-free MEM containing trypsin treated with 5 μg/ml TPCK (N-tosyl-L-phenylalanine chloromethyl ketone), treated with a minimal volume of the prepared culture cells, and then incubated in a 37° C. cell incubator containing 5% CO2 for 2 to 3 days.\nThe viral infection was determined by the formation of virus syncytia. […] Subsequently, the cells were added with a culture broth, in which the virus was subjected to a 2-fold serial dilution, and incubated for 24 to 48 hours to confirm viral infection, and the virus titer was calculated by the Reed & Muench method. […]"}, "[3]": {"assay": "Acid-resistance assessment in artificial gastric juice medium (viable cell count)", "assay_type": "physicochemical", "conditions": "artificial gastric juice medium (MRS with pepsin, pH 2.5), 37° C.", "description": "An artificial gastric juice medium was prepared for the assessment of acid-resistance. More specifically, the artificial gastric juice medium was prepared by adding pepsin to a liquid MRS medium so as to adjust the pH to 2.5, followed by sterilization.\nas §1, with “gastric juice” for “bile”, “3” for “24”\nas §2"}, "sows": {"test_system": "sows", "assay": "Effect on immunity and colostrum of sows (IgA and IgG ELISA)", "assay_type": "in vivo", "conditions": "vs control; for total IgA content in the serum of sows / total IgG content in the serum of sows: sows fed 10^10 to 10^11 CFU per day for 4 weeks", "description": "An experiment was carried out in order to confirm the effect of the composition including the Lactobacillus plantarum CJLP475 strain and the Lactobacillus plantarum CJLP243 strain on the immunity and colostrum of sows when the composition was given to the sows, as follows: fifteen sows at 6 weeks before delivery in the same delivery period were selected randomly for each experimental group from the farms in which no PED virus had occurred. All of the sows used in the experiment were inoculated with the PED virus vaccine at 5 weeks and 2 weeks before delivery. The experiment was carried out in a total of four experimental groups, i.e., a control group in which no strain was fed, a group fed with CJLP475 alone, a group fed with CJLP243 alone, and a group fed with the composition including CJLP475 strain and CJLP243 strain. The feed was given in the form of common feeds without antibiotics, and water was given to be consumed freely. The Lactobacillus plantarum CJLP475 strain, the Lactobacillus plantarum CJLP243 strain, and the composition were produced in the form of freeze-dried powder and stored in a refrigerator, and then added on top of the feed when given to the sows so that each sow was given the feed in an amount of 10^10 to 10^11 CFU per day according to the treatment conditions. The sows were fed for a total of 4 weeks, and then the serum and colostrum of the sows were examined using an IgA and IgG ELISA kit."}, "[4]": {"assay": "Antibiotic susceptibility test with antibiotic discs", "conditions": "for resistance to antibiotics: ampicillin, clindamycin, gentamicin, kanamycin, erythromycin, ampicillin/sulbactam, chloramphenicol, streptomycin discs", "description": "The Lactobacillus plantarum CJLP475 strain and the Lactobacillus plantarum CJLP243 strain were independently inoculated into a liquid MRS medium and subjected to a static culture at 37° C. for 24 hours. The thus-cultured bacteria were soaked in sterilized cotton swabs and smeared on a Mueller Hinton II solid medium (Difco), and then antibiotic discs were placed on the medium and incubated at 37° C. for 24 hours. Ampicillin, clindamycin, gentamicin, kanamycin, erythromycin, ampicillin/sulbactam, chloramphenicol, and streptomycin discs (Oxoid, UK) were used as antibiotic discs for the antibiotic test."}, "[5]": {"test_system": "red blood cells (sheep blood 5% agar)", "assay": "Hemolytic activity on blood agar plates", "assay_type": "cell-based", "conditions": "37° C., 24 hours", "description": "[…]-Hemolysis is a phenomenon in which phospholipids supplied by red blood cells are hydrolyzed by phospholipid enzymes produced from harmful bacteria, resulting in hemolysis of red blood cells. In order to determine the hemolytic activity of the Lactobacillus plantarum CJLP475 strain and the Lactobacillus plantarum CJLP243 strain, blood agar plates (sheep blood 5% agar, Hanilkomed, Korea) were used. The strains were streaked into the prepared blood agar plates and incubated at 37° C. for 24 hours to confirm the hemolysis."}, "piglets": {"test_system": "piglets", "assay": "Immunity of piglets born from fed sows (IgA ELISA)", "assay_type": "in vivo", "conditions": "4 days after given colostrum, vs control", "description": "In order to confirm the effect of the composition including the Lactobacillus plantarum CJLP475 strain and the Lactobacillus plantarum CJLP243 strain on the immunity of piglets born from the sows fed with the composition, an experiment was carried out using sows as in Example 9. Further, blood was collected from the piglets born from the sows 4 days after given colostrum to carry out an immunological analysis using an IgA ELISA kit."}}, "data": [{"substance": "Lactobacillus plantarum CJLP243", "values": [{"measurement": "Bile-Resistance Assessment, viable cell count 0 hr", "setting": "[1]", "result": "3.2 × 10^7 CFU/mL"}, {"measurement": "Bile-Resistance Assessment, viable cell count 24 hrs", "setting": "[1]", "result": "7.3 × 10^8 CFU/mL"}, {"measurement": "Inhibitory Effect against PED virus infection, mLN, SM98", "setting": "PED virus SM98", "result": "+"}, {"measurement": "Inhibitory Effect against PED virus infection, Spin, SM98", "setting": "PED virus SM98", "result": "++"}, {"measurement": "Inhibitory Effect against PED virus infection, mLN, KPEDV9", "setting": "PED virus KPEDV9", "result": "++"}, {"measurement": "Inhibitory Effect against PED virus infection, Spin, KPEDV9", "setting": "PED virus KPEDV9", "result": "++"}, {"measurement": "inhibitory effect against PED virus infection (microscopy, crystal violet)", "setting": "[2]", "result": "the virus infection was suppressed"}, {"measurement": "Acid-Resistance Assessment, viable cell count 0 hr", "setting": "[3]", "result": "4.5 × 10^7 CFU/mL"}, {"measurement": "Acid-Resistance Assessment, viable cell count 3 hrs", "setting": "[3]", "result": "4.4 × 10^7 CFU/mL"}, {"measurement": "total IgA content in the serum of sows", "setting": "sows", "result": "higher than those in the control group"}, {"measurement": "total IgG content in the serum of sows", "setting": "sows", "result": "higher than those in the control group"}, {"measurement": "resistance to antibiotics", "setting": "[4]", "result": "not resistant"}, {"measurement": "hemolysis", "setting": "[5]", "result": "did not show hemolysis"}]}, {"substance": "Lactobacillus plantarum CJLP475", "values": [{"measurement": "Bile-Resistance Assessment, viable cell count 0 hr", "setting": "[1]", "result": "1.3 × 10^8 CFU/mL"}, {"measurement": "Bile-Resistance Assessment, viable cell count 24 hrs", "setting": "[1]", "result": "1.1 × 10^7 CFU/mL"}, {"measurement": "total IgA content in the piglet serum", "setting": "piglets", "result": "higher"}, {"measurement": "Inhibitory Effect against PED virus infection, mLN, SM98", "setting": "PED virus SM98", "result": "++"}, {"measurement": "Inhibitory Effect against PED virus infection, Spin, SM98", "setting": "PED virus SM98", "result": "++"}, {"measurement": "Inhibitory Effect against PED virus infection, mLN, KPEDV9", "setting": "PED virus KPEDV9", "result": "++"}, {"measurement": "Inhibitory Effect against PED virus infection, Spin, KPEDV9", "setting": "PED virus KPEDV9", "result": "++"}, {"measurement": "inhibitory effect against PED virus infection (microscopy, crystal violet)", "setting": "[2]", "result": "the virus infection was suppressed"}, {"measurement": "Acid-Resistance Assessment, viable cell count 0 hr", "setting": "[3]", "result": "1.1 × 10^6 CFU/mL"}, {"measurement": "Acid-Resistance Assessment, viable cell count 3 hrs", "setting": "[3]", "result": "1.1 × 10^7 CFU/mL"}, {"measurement": "total IgA antibody titer in the colostrum", "setting": "sows; sow colostrum during delivery", "result": "higher"}, {"measurement": "total IgA content in the serum of sows", "setting": "sows", "result": "higher than those in the control group"}, {"measurement": "total IgG content in the serum of sows", "setting": "sows", "result": "higher than those in the control group"}, {"measurement": "Radius of Growth Inhibition Area Centered Around Antibiotics", "setting": "[4]; Amp10 (Ampicillin) disc", "result": 7.5, "unit": "mm"}, {"measurement": "Radius of Growth Inhibition Area Centered Around Antibiotics", "setting": "[4]; C30 (Clindamycin) disc", "result": 7, "unit": "mm"}, {"measurement": "Radius of Growth Inhibition Area Centered Around Antibiotics", "setting": "[4]; CN120 (Gentamicin) disc", "result": 5, "unit": "mm"}, {"measurement": "Radius of Growth Inhibition Area Centered Around Antibiotics", "setting": "[4]; DA2 (Streptomycin) disc", "result": 4.5, "unit": "mm"}, {"measurement": "Radius of Growth Inhibition Area Centered Around Antibiotics", "setting": "[4]; E15 (Erythromycin) disc", "result": 12, "unit": "mm"}, {"measurement": "Radius of Growth Inhibition Area Centered Around Antibiotics", "setting": "[4]; K30 (Kanamycin) disc", "result": 1.5, "unit": "mm"}, {"measurement": "Radius of Growth Inhibition Area Centered Around Antibiotics", "setting": "[4]; S10 (Chloramphenicol) disc", "result": 3.5, "unit": "mm"}, {"measurement": "Radius of Growth Inhibition Area Centered Around Antibiotics", "setting": "[4]; SAM20 (Ampicillin/Sulbactam) disc", "result": 7, "unit": "mm"}, {"measurement": "resistance to antibiotics", "setting": "[4]", "result": "not resistant"}, {"measurement": "hemolysis", "setting": "[5]", "result": "did not show hemolysis"}]}]}
